Test results reported in patent publication EP0307172A2, “Improvements in or relating to specific 5-HT3 antagonists” (ELI LILLY AND COMPANY, priority 1987, dated 1989).

Biological target: T1, 5-HT₃ receptor (Rattus norvegicus, UniProt P35563)
T1 construct: from tissue
T1 sequence (P35563 24-483): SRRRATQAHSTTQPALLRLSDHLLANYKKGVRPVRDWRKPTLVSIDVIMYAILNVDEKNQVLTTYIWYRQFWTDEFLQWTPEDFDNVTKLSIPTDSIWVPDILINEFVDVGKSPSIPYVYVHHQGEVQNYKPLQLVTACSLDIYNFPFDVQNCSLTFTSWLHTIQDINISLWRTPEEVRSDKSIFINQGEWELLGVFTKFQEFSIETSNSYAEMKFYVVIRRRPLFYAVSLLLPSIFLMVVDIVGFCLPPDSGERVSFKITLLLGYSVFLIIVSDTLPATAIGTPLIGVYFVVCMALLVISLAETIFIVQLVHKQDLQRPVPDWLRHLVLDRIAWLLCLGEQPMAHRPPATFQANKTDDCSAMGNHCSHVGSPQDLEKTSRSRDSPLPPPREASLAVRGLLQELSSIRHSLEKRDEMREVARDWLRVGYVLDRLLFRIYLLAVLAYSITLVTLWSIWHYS
Assay: Inhibition of serotonin-induced Von Bezold-Jarisch reflex in rats
Type: in vivo
Settings: 15 minutes prior to 5-HT; for inhibition at 0.01 mg/kg / inhibition at 0.001 mg/kg / inhibition at 0.003 mg/kg / inhibition at 0.03 mg/kg: rat, iv, read-out: Percent Inhibition of Reflex in Rats; for inhibition at 0.001 mg/kg: 0.001 mg/kg I.V.; for inhibition at 0.03 mg/kg: 0.03 mg/kg I.V.
Source text: The compounds of Formula I of this invention are long-acting, orally effective specific 5-HT₃ receptor antagonists, rendering them useful for the treatment of migraine. Because of this mechanism, the compounds of this invention should also be useful for treating emesis, motion sickness, ischemic bowel disease, diabetic gastric paresis, relaxation of the gastro-intestinal tract for instrumentation, other gastro-intestinal pain following surgery, obstetrics or as in abdominal cramps, and for treating CNS disorders such as schizophrenia and anxiety. The ability of these compounds to antagonize the effects of 5-HT was assessed by their inhibition of the Von Bezold-Jarisch reflex induced by 5-HT injected intravenously into the rat (See Paintal, Physiol. Rev., 53, 159 (1973)). When administered by the intravenous route 15 minutes prior to the administration of 5-HT, the compounds of this invention were effective in inhibiting the serotonin-induced Bezold-Jarisch reflex as summarized in Table 1 below: Table 1

inhibition at 0.01 mg/kg (0.01 mg/kg I.V.) [%] | inhibition at 0.003 mg/kg (0.003 mg/kg I.V.) [%] | Compound | other results
20 |  | COc1cc2c(c(C(=O)N[C@H]3C[C@H]4CC[C@@H](C3)N4C)c1)OC(C)C2 (mixture of isomers) [Example 27, dl-endo-2,3-dihydro-5-methoxy-2-methyl-N-(8-methyl-8-azabicyclo[3.2.1]oct-3-yl)-7-benzofurancarboxamide (Z)-2-butenedioate] | 
4 |  | COc1cc2c(c(C(=O)O[C@H]3C[C@H]4CC[C@@H](C3)N4C)c1)OC(C)C2 (mixture of isomers) [Example 28, dl-endo-2-methyl-5-methoxy-2,3-dihydro-7-benzofurancarboxylic acid, 8-methyl-8-azabicyclo[3.2.1]-oct-3-yl ester (Z)-2-butenedioate] | 
32 |  | CC1Cc2cc(F)cc(C(=O)O[C@H]3C[C@H]4CC[C@@H](C3)N4C)c2O1 (mixture of isomers) [Example 31, dl-endo-5-fluoro-2,3-dihydro-2-methyl-7-benzofurancarboxylic acid, 8-methyl-8-azabicyclo[3.2.1]oct-3-yl ester (Z)-2-butenedioate] | 
80 | 80 | CC1Cc2cc(Cl)cc(C(=O)N[C@H]3C[C@H]4CC[C@@H](C3)N4C)c2O1 (mixture of isomers) [Example 32, dl-endo-5-chloro-2,3-dihydro-2-methyl-N-(8-methyl-8-azabicyclo[3.2.1]oct-3-yl)-7-benzofurancarboxamide (Z)-2-butenedioate] | inhibition at 0.001 mg/kg: 58%
22 |  | CC1Cc2cccc(C(=O)N[C@H]3C[C@H]4CC[C@@H](C3)N4C)c2O1 (mixture of isomers) [Example 33, dl-endo-2,3-dihydro-2-methyl-N-(8-methyl-8-azabicyclo[3.2.1]oct-3-yl)-7-benzofurancarboxamide (Z)-2-butenedioate] | inhibition at 0.03 mg/kg: 57%
69 | 51 | CC1Cc2cc(Cl)cc(C(=O)O[C@H]3C[C@H]4CC[C@@H](C3)N4C)c2O1 (mixture of isomers) [Example 34, dl-endo-5-chloro-2,3-dihydro-2-methyl-7-benzofurancarboxylic acid, 8-methyl-8-azabicyclo[3.2.1]oct-3-yl ester (Z)-2-butenedioate] | inhibition at 0.001 mg/kg: 6%
31 |  | CC1Cc2cccc(C(=O)O[C@H]3C[C@H]4CC[C@@H](C3)N4C)c2O1 (mixture of isomers) [Example 35, dl-endo-2,3-dihydro-2-methyl-7-benzofurancarboxylic acid, 8-methyl-8-azabicyclo[3.2.1]oct-3-yl ester (Z)-2-butenedioate] | 
26 |  | CC1Cc2cccc(C(=O)N[C@@H]3C[C@H]4CC[C@@H](C3)N4C)c2O1 (mixture of isomers) [Example 38, dl-exo-2,3-dihydro-2-methyl-N-(8-methyl-8-azabicyclo[3.2.1]oct-3-yl)-7-benzofurancarboxamide (Z)-2-butenedioate] | inhibition at 0.03 mg/kg: 51%
67 | 14 | Cc1cc2c(c(C(=O)O[C@H]3C[C@H]4CC[C@@H](C3)N4C)c1)OC(C)C2 (mixture of isomers) [Example 40, dl-endo-2,3-dihydro-2,5-dimethyl-7-benzofurancarboxylic acid, 8-methyl-8-azabicyclo[3.2.1]oct-3-yl ester (Z)-2-butenedioate] | inhibition at 0.001 mg/kg: 3%
0.1 |  | CN1[C@@H]2CC[C@H]1C[C@@H](NC(=O)c1cccc3c1SC(C)(C)C3)C2 [Example 16, Endo-2,3-dihydro-2,2-dimethyl-N-(8-methyl-8-azabicyclo[3.2.1]oct-3-yl)benzo[b]thiophene-7-carboxamide (Z)-2-butenedioate] | 
53 | -2 | CN1[C@@H]2CC[C@H]1C[C@@H](NC(=O)c1cccc3c1OC(C)(C)C3)C2 [Example 17, Endo-2,3-dihydro-2,2-dimethyl-N-(8-methyl-8-azabicyclo[3.2.1]oct-3-yl)-7-benzofurancarboxamide (Z)-2-butenedioate] | inhibition at 0.03 mg/kg: 82%
1.2 |  | CN1[C@@H]2CC[C@H]1C[C@@H](NC(=O)c1ccc(Cl)c3c1OC(C)(C)C3)C2 [Example 18, Endo-4-chloro-2,3-dihydro-2,2-dimethyl-N-(8-methyl-8-azabicyclo[3.2.1]oct-3-yl)-7-benzofurancarboxamide (Z)-2-butenedioate] | 
16 |  | CN1[C@@H]2CC[C@H]1C[C@@H](NC(=O)c1ccc3c(c1)CC(C)(C)O3)C2 [Example 20, Endo-2,3-dihydro-2,2-dimethyl-N-(8-methyl-8-azabicyclo[3.2.1]oct-3-yl)-5-benzofurancarboxamide (Z)-2-butenedioate] | 
87 | 11 | Cc1cc2c(c(C(=O)N[C@H]3C[C@H]4CC[C@@H](C3)N4C)c1)OC(C)(C)C2 [Example 21, Endo-2,3-dihydro-2,2,5-trimethyl-N-(8-methyl-8-azabicyclo[3.2.1]oct-3-yl)-7-benzofurancarboxamide (Z)-2-butenedioate] | inhibition at 0.001 mg/kg: 0.3%
-4 |  | CN1[C@@H]2CC[C@H]1C[C@@H](NC(=O)c1cccc3c1CC(C)(C)O3)C2 [Example 22, Endo-2,3-dihydro-2,2-dimethyl-N-(8-methyl-8-azabicyclo[3.2.1]oct-3-yl)-4-benzofurancarboxamide (Z)-2-butenedioate] | 
-8 |  | CN1[C@@H]2CC[C@H]1C[C@@H](NC(=O)c1ccc3c(c1)OC(C)(C)C3)C2 [Example 23, Endo-2,3-dihydro-2,2-dimethyl-N-(8-methyl-8-azabicyclo[3.2.1]oct-3-yl)-6-benzofurancarboxamide (Z)-2-butenedioate] | 
38 | 21 | CN1[C@@H]2CC[C@H]1C[C@@H](OC(=O)c1cccc3c1OC(C)(C)C3)C2 [Example 24, Endo-2,3-dihydro-2,2-dimethyl-7-benzofurancarboxylic acid, 8-methyl-8-azabicyclo[3.2.1]oct-3-yl ester (Z)-2-butenedioate] | 
83 | 19 | CN1[C@@H]2CC[C@H]1C[C@@H](OC(=O)c1cc(Cl)cc3c1OC(C)(C)C3)C2 [Example 25, Endo-5-chloro-2,3-dihydro-2,2-dimethyl-7-benzofurancarboxylic acid, 8-methyl-8-azabicyclo[3.2.1]oct-3-yl ester (Z)-2-butenedioate] | inhibition at 0.001 mg/kg: 10%
2 |  | CN1[C@@H]2CC[C@H]1C[C@H](OC(=O)c1cc(Cl)cc3c1OC(C)(C)C3)C2 [Example 26, Exo-2,2-dimethyl-5-chloro-2,3-dihydro-7-benzofurancarboxylic acid, 8-methyl-8-azabicyclo[3.2.1]oct-3-yl ester (Z)-2-butenedioate] | 
-4 |  | CN1[C@@H]2CC[C@H]1C[C@@H](OC(=O)c1cc(Cl)c3c(c1)CC(C)(C)O3)C2 [Example 29, Endo-2,2-dimethyl-7-chloro-2,3-dihydro-5-benzofurancarboxylic acid, 8-methyl-8-azabicyclo[3.2.1]oct-3-yl ester (Z)-2-butenedioate] | 
 |  | CN1C2CCC1CC(NC(=O)c1cc(Cl)cc3c1OC(C)(C)C3)C2.O=C(O)/C=C\C(=O)O (stereo not drawn) [Example 30, Exo-2,2-dimethyl-5-chloro-2,3-dihydro-N-(8-methyl-8-azabicyclo[3.2.1]oct-3-yl)-7-benzofurancarboxamide (Z)-2-butenedioate] | Percent Inhibition of Reflex in Rats (0.003 mg/kg I.V.): 26%; Percent Inhibition of Reflex in Rats (0.01 mg/kg I.V.): 67%
76 |  | CN1[C@@H]2CC[C@H]1C[C@@H](NC(=O)c1cccc3c1OC(C)(C)CC3)C2 [Example 36, Endo-2,2-dimethyl-N-(8-methyl-8-azabicyclo[3.2.1]oct-3-yl)-8-chromancarboxamide (Z)-2-butenedioate] | inhibition at 0.001 mg/kg: 4%
4 |  | Cc1cc2c(c(C(=O)O[C@H]3C[C@H]4CC[C@@H](C3)N4C)c1)OC(C)(C)C2 [Example 37, Endo-2,3-dihydro-2,2,5-trimethyl-7-benzofurancarboxylic acid, 8-methyl-8-azabicyclo[3.2.1]oct-3-yl ester (Z)-2-butenedioate] | 
53 | -2 | CN1[C@@H]2CC[C@H]1C[C@H](NC(=O)c1cccc3c1OC(C)(C)C3)C2 [Example 39, Exo-2,3-dihydro-2,2-dimethyl-N-(8-methyl-8-azabicyclo[3.2.1]oct-3-yl)-7-benzofurancarboxamide (Z)-2-butenedioate] | inhibition at 0.03 mg/kg: 82%
